# In patent US20240358693A1, “METHODS OF TREATING PAIN” (Aisa Pharma, Inc., priority 2023, published 2024):
# Test system: participants with SSc-RP
# Test: Frequency of weekly RP attacks (all attacks; primary efficacy endpoint)
# Type: in vivo, human
# Settings: for Weekly RP Attacks (All Attacks) Change from Baseline, Mean / Weekly RP Attacks (All Attacks) Change from Baseline, Median / Weekly RP Attacks (All Attacks) Percent Change from Baseline, Mean / Weekly RP Attacks (All Attacks) Percent Change from Baseline, Median / Weekly RP Attacks (All Attacks), Mean / Weekly RP Attacks (All Attacks), Median: Excluding Outliers, by Baseline RCS, ITT Part A; for Weekly RP Attacks Change from Baseline, Max / Weekly RP Attacks Change from Baseline, Mean (SD) / Weekly RP Attacks Change from Baseline, Median / Weekly RP Attacks Change from Baseline, Min / Weekly RP Attacks Change from Baseline, Q1 / Weekly RP Attacks Change from Baseline, Q3 / Weekly RP Attacks Percent Change from Baseline, Max / Weekly RP Attacks Percent Change from Baseline, Mean (SD) / Weekly RP Attacks Percent Change from Baseline, Median / Weekly RP Attacks Percent Change from Baseline, Min / Weekly RP Attacks Percent Change from Baseline, Q1 / Weekly RP Attacks Percent Change from Baseline, Q3 / Weekly RP Attacks, Max / Weekly RP Attacks, Mean (SD) / Weekly RP Attacks, Median / Weekly RP Attacks, Min / Weekly RP Attacks, Q1 / Weekly RP Attacks, Q3: all attacks, excluding outliers, tadalafil 5 mg daily
# Excerpt: Percent change from baseline evaluation for frequency of weekly RP attacks were or will be used as the primary efficacy variable. The sponsor-developed participant-informed diary will be used to record data. Frequency of weekly RP attacks is defined as the total number of RP attacks divided by the number of days with available diary data within the last 7 days of each dosing period then multiplied by 7. Total number of RP attacks during the last 7 days of screening period divided by the number of days with available data then multiplied by 7 will be used as baseline for the analysis of all periods. The variable will be calculated as follows:
# Percentage change={(weekly RP attacks for the last 7 days of each dosing period−Baseline weekly RP attacks)/Baseline weekly RP attacks}*100%.
# Absolute change=weekly RP attacks for the last 7 days of each dosing period−Baseline weekly RP attacks
# Percent change from baseline evaluation for frequency of weekly RP attacks was and will be the primary efficacy endpoint. Frequency of weekly RP attacks is defined as the total number of RP attacks divided by the number of days with available diary data within the last 7 days of each dosing period then multiplied by 7. Total number of RP attacks during the last 7 days of screening period divided by the number of days with available data then multiplied by 7 will be used as baseline for the analysis of all periods.
# Percent change from baseline evaluation for frequency of weekly RP attacks were the primary efficacy endpoint. Data collected in the last 7 days of each dosing period were used for this analysis. Screening assessments were used as baseline for the analysis of all periods. No multiple comparison adjustment were used to control alpha for the multiple comparisons. Mixed effects model were used for analysis of the primary endpoint according to the crossover design. Other efficacy endpoints of continuous variables were analyzed using similar methodology. For nominal data, chi-square tests were applied. Generalized Estimating Equations method were used, as appropriate, for adjusting for potential confounding factors. In addition, the final analysis assessed whether in this study of severe Raynaud's disease participants, the minimally important difference, previously concluded of 14-15 points on the 100 point RCS scale had been achieved in the cilnidipine dose group. It also recorded the percentage of participants achieving a PASS (34 point difference from baseline on a 0-100 VAS) in each treatment group.
# [1] = Cilnidipine 10 mg, n=1, first subgroup
# [2] = Cilnidipine 20 mg (n=3), subgroup n = 2
# [3] = Cilnidipine 20 mg, n=2, first subgroup
# [4] = Pooled Cilnidipine 10 mg and Cilnidipine 10 mg + Tadalafil 5 mg, n=1, second subgroup
# [5] = Pooled Cilnidipine 10 mg and Cilnidipine 10 mg + Tadalafil 5 mg, n=2, first subgroup
# [6] = Pooled Cilnidipine 20 mg and Cilnidipine 20 mg + Tadalafil 5 mg, n=1, second subgroup
# [7] = Pooled Cilnidipine 20 mg and Cilnidipine 20 mg + Tadalafil 5 mg, n=3, first subgroup
# [8] = Pooled Cilnidipine (n = 7), subgroup n = 2
# [9] = Pooled Cilnidipine, n=3, first subgroup
# [10] = pooled cilnidipine 10 mg and 20 mg
structure (smiles),measurement,setting,value
"COCCOC(=O)C1=C(C)NC(C)=C(C(=O)OC/C=C/c2ccccc2)C1c1cccc([N+](=O)[O-])c1 (stereo not drawn) [Cilnidipine, cilnidipine]",reduction in weekly frequency of typical Raynaud attacks,10 mg of cilnidipine (n=3 for both doses),28%
same,reduction in weekly frequency of typical Raynaud attacks,20 mg of cilnidipine (n=3 for both doses),46%
same,"Weekly RP Attacks (All Attacks) Change from Baseline, Mean",[1],−9.00
same,"Weekly RP Attacks (All Attacks) Change from Baseline, Median",[1],−9.00
same,"Weekly RP Attacks (All Attacks) Percent Change from Baseline, Mean",[1],−28.13%
same,"Weekly RP Attacks (All Attacks) Percent Change from Baseline, Median",[1],−28.13%
same,"Weekly RP Attacks (All Attacks), Mean",[1],23.00
same,"Weekly RP Attacks (All Attacks), Median",[1],23.00
same,"Subgroup Baseline RCS, <3.5 baseline","Cilnidipine 20 mg (n=3), subgroup n = 1",<3.5 baseline −42%
same,"Subgroup Baseline RCS, >3.5-7.5 baseline",[2],>3.5-7.5 baseline −43%
same,"Subgroup attack frequency, <10 baseline",[2],<10 baseline −29%
same,"Subgroup attack frequency, >10 baseline",[2],>10 baseline −50%
same,"Weekly RP Attacks (All Attacks) Change from Baseline, Mean",[3],−6.67
same,"Weekly RP Attacks (All Attacks) Change from Baseline, Median",[3],−6.67
same,"Weekly RP Attacks (All Attacks) Percent Change from Baseline, Mean",[3],−45.71%
same,"Weekly RP Attacks (All Attacks) Percent Change from Baseline, Median",[3],−45.71%
same,"Weekly RP Attacks (All Attacks), Mean",[3],8.00
same,"Weekly RP Attacks (All Attacks), Median",[3],8.00
same,Mean % reduction of weekly attacks from baseline,Cilnidipine (20 mg) (n = 3),43%
same,Mean weekly attacks at baseline,Cilnidipine (20 mg) (n = 3),12.7
same,Weekly attack frequency,Cilnidipine (20 mg) (n = 3),−43%
same,"Weekly attack frequency, If baseline RCS <3.5",Cilnidipine (20 mg) (n = 3),−42%
same,"Weekly RP Attacks (All Attacks) Change from Baseline, Mean",[4],−5.00
same,"Weekly RP Attacks (All Attacks) Change from Baseline, Median",[4],−5.00
same,"Weekly RP Attacks (All Attacks) Percent Change from Baseline, Mean",[4],−45.45%
same,"Weekly RP Attacks (All Attacks) Percent Change from Baseline, Median",[4],−45.45%
same,"Weekly RP Attacks (All Attacks), Mean",[4],6.00
same,"Weekly RP Attacks (All Attacks), Median",[4],6.00
same,"Weekly RP Attacks (All Attacks) Change from Baseline, Mean",[5],−6.50
same,"Weekly RP Attacks (All Attacks) Change from Baseline, Median",[5],−6.50
same,"Weekly RP Attacks (All Attacks) Percent Change from Baseline, Mean",[5],−36.28%
same,"Weekly RP Attacks (All Attacks) Percent Change from Baseline, Median",[5],−36.28%
same,"Weekly RP Attacks (All Attacks), Mean",[5],14.00
same,"Weekly RP Attacks (All Attacks), Median",[5],14.00
same,"Weekly RP Attacks (All Attacks) Change from Baseline, Mean",[6],−1.83
same,"Weekly RP Attacks (All Attacks) Change from Baseline, Median",[6],−1.83
same,"Weekly RP Attacks (All Attacks) Percent Change from Baseline, Mean",[6],−14.29%
same,"Weekly RP Attacks (All Attacks) Percent Change from Baseline, Median",[6],−14.29%
same,"Weekly RP Attacks (All Attacks), Mean",[6],11.00
same,"Weekly RP Attacks (All Attacks), Median",[6],11.00
same,"Weekly RP Attacks (All Attacks) Change from Baseline, Mean",[7],−5.78
same,"Weekly RP Attacks (All Attacks) Change from Baseline, Median",[7],−4.33
same,"Weekly RP Attacks (All Attacks) Percent Change from Baseline, Mean",[7],−37.49%
same,"Weekly RP Attacks (All Attacks) Percent Change from Baseline, Median",[7],−45.00%
same,"Weekly RP Attacks (All Attacks), Mean",[7],10.33
same,"Weekly RP Attacks (All Attacks), Median",[7],11.00
same,Weekly attack frequency,Pooled Cilnidipine (n = 7),−41%
same,"Weekly attack frequency, If baseline RCS <3.5",Pooled Cilnidipine (n = 7),−27%
same,"Subgroup Baseline RCS, 3.5-7.5 baseline","Pooled Cilnidipine (n = 7), subgroup n = 1",3.5-7.5 baseline −86%
same,"Subgroup attack frequency, <10 baseline",[8],<10 baseline −55%
same,"Subgroup attack frequency, >10 baseline",[8],>10 baseline −28%
same,"Subgroup Baseline RCS, <3.5 baseline","Pooled Cilnidipine (n = 7), subgroup n = 3",<3.5 baseline −27%
same,"Weekly RP Attacks (All Attacks) Change from Baseline, Mean",[9],−7.44
same,"Weekly RP Attacks (All Attacks) Change from Baseline, Median",[9],−9.00
same,"Weekly RP Attacks (All Attacks) Percent Change from Baseline, Mean",[9],−39.85%
same,"Weekly RP Attacks (All Attacks) Percent Change from Baseline, Median",[9],−45.00%
same,"Weekly RP Attacks (All Attacks), Mean",[9],13.00
same,"Weekly RP Attacks (All Attacks), Median",[9],11.00
same,"Weekly RP Attacks Change from Baseline, Max",cilnidipine 10 mg,"−9.0, −9.0"
same,"Weekly RP Attacks Change from Baseline, Mean (SD)",cilnidipine 10 mg,−9.00
same,"Weekly RP Attacks Change from Baseline, Median",cilnidipine 10 mg,−9.00
same,"Weekly RP Attacks Change from Baseline, Min",cilnidipine 10 mg,"−9.0, −9.0"
same,"Weekly RP Attacks Change from Baseline, Q1",cilnidipine 10 mg,"−9.00, −9.00"
same,"Weekly RP Attacks Change from Baseline, Q3",cilnidipine 10 mg,"−9.00, −9.00"
same,"Weekly RP Attacks Percent Change from Baseline, Max",cilnidipine 10 mg,"−28.1, −28.1%"
same,"Weekly RP Attacks Percent Change from Baseline, Mean (SD)",cilnidipine 10 mg,−28.13%
same,"Weekly RP Attacks Percent Change from Baseline, Median",cilnidipine 10 mg,−28.13%
same,"Weekly RP Attacks Percent Change from Baseline, Min",cilnidipine 10 mg,"−28.1, −28.1%"
same,"Weekly RP Attacks Percent Change from Baseline, Q1",cilnidipine 10 mg,"−28.13, −28.13%"
same,"Weekly RP Attacks Percent Change from Baseline, Q3",cilnidipine 10 mg,"−28.13, −28.13%"
same,"Weekly RP Attacks, Max",cilnidipine 10 mg,"23.0, 23.0"
same,"Weekly RP Attacks, Mean (SD)",cilnidipine 10 mg,23.00
same,"Weekly RP Attacks, Median",cilnidipine 10 mg,23.00
same,"Weekly RP Attacks, Min",cilnidipine 10 mg,"23.0, 23.0"
same,"Weekly RP Attacks, Q1",cilnidipine 10 mg,"23.00, 23.00"
same,"Weekly RP Attacks, Q3",cilnidipine 10 mg,"23.00, 23.00"
same,"Weekly RP Attacks Change from Baseline, Max",cilnidipine 20 mg,−4.3
same,"Weekly RP Attacks Change from Baseline, Mean (SD)",cilnidipine 20 mg,−6.67 (3.300)
same,"Weekly RP Attacks Change from Baseline, Median",cilnidipine 20 mg,−6.67
same,"Weekly RP Attacks Change from Baseline, Min",cilnidipine 20 mg,−9.0
same,"Weekly RP Attacks Change from Baseline, Q1",cilnidipine 20 mg,−9.00
same,"Weekly RP Attacks Change from Baseline, Q3",cilnidipine 20 mg,−4.33
same,"Weekly RP Attacks Percent Change from Baseline, Max",cilnidipine 20 mg,−45.0%
same,"Weekly RP Attacks Percent Change from Baseline, Mean (SD)",cilnidipine 20 mg,−45.71 (1.010) Percent
same,"Weekly RP Attacks Percent Change from Baseline, Median",cilnidipine 20 mg,−45.71%
same,"Weekly RP Attacks Percent Change from Baseline, Min",cilnidipine 20 mg,−46.4%
same,"Weekly RP Attacks Percent Change from Baseline, Q1",cilnidipine 20 mg,−46.43%
same,"Weekly RP Attacks Percent Change from Baseline, Q3",cilnidipine 20 mg,−45.00%
same,"Weekly RP Attacks, Max",cilnidipine 20 mg,11.0
same,"Weekly RP Attacks, Mean (SD)",cilnidipine 20 mg,8.00 (4.243)
same,"Weekly RP Attacks, Median",cilnidipine 20 mg,8.00
same,"Weekly RP Attacks, Min",cilnidipine 20 mg,5.0
same,"Weekly RP Attacks, Q1",cilnidipine 20 mg,5.00
same,"Weekly RP Attacks, Q3",cilnidipine 20 mg,11.00
same,"Weekly RP Attacks Change from Baseline, Max",[10],−4.3
same,"Weekly RP Attacks Change from Baseline, Mean (SD)",[10],−7.44 (2.694)
same,"Weekly RP Attacks Change from Baseline, Median",[10],−9.00
same,"Weekly RP Attacks Change from Baseline, Min",[10],−9.0
same,"Weekly RP Attacks Change from Baseline, Q1",[10],−9.00
same,"Weekly RP Attacks Change from Baseline, Q3",[10],−4.33
same,"Weekly RP Attacks Percent Change from Baseline, Max",[10],−28.1%
same,"Weekly RP Attacks Percent Change from Baseline, Mean (SD)",[10],−39.85 (10.180) Percent
same,"Weekly RP Attacks Percent Change from Baseline, Median",[10],−45.00%
same,"Weekly RP Attacks Percent Change from Baseline, Min",[10],−46.4%
same,"Weekly RP Attacks Percent Change from Baseline, Q1",[10],−46.43%
same,"Weekly RP Attacks Percent Change from Baseline, Q3",[10],−28.13%
same,"Weekly RP Attacks, Max",[10],23.0
same,"Weekly RP Attacks, Mean (SD)",[10],13.00 (9.165)
same,"Weekly RP Attacks, Median",[10],11.00
same,"Weekly RP Attacks, Min",[10],5.0
same,"Weekly RP Attacks, Q1",[10],5.00
